Reference: patent US11872210B2, “Thiol isomerases inhibitors and use thereof” (WESTERN NEW ENGLAND UNIVERSITY, priority 2017, dated 2024)

Assays:
whole human blood = experiment: Thrombus formation under flow (in vitro, collagen coated Cellix capillaries); type: cell-based
Procedure: Thrombus Formation under flow: Human blood was drawn into 3.2% (w/v) sodium citrate and labelled with 2 μM DIOC-6 for an hour. A […] biochip was coated with 1 μL Collagen (100 μg/mL) for 1 hour. Blood was then incubated with vehicle (0.1% (v/v) DMSO) or zafirlukast (10 μM) for 5 minutes prior to perfusion over collagen coated Cellix microfluidic cells at a shear rate of 20 dynes/cm^2. Images were recorded for 10 minutes perfusion by confocal microscopy (Nikon Al Microscope, Nikon, Japan) and analyzed using ImageJ. Whole human blood labelled with the lipophilic dye DIOC-6 was incubated with zafirlukast (10 μM) or vehicle (0.1% (v/v) DMSO) for 5 minutes before perfusion over […] capillaries coated with collagen (100 μg/mL) at an arterial shear rate of 20 dynes/cm^2. Images were recorded for 10 minutes using confocal microscopy and analyzed using ImageJ. The median fluorescence intensity was determined and compared to max intensity response; the more intense the fluorescence the larger the volume of thrombus formed.

PDI = target: T1, PDI (Homo sapiens, UniProt P07237); experiment: Insulin-based turbidometric assay of thiol isomerase inhibitory activity (PDI); type: biochemical; conditions: insulin turbidity assay, 6 point dose curve
T1 construct: purchased AbCam (Cambridge Mass.)
Excerpt: Recombinant thiol isomerases were purchased from AbCam (Cambridge Mass.), recombinant insulin (bovine), bacitracin, dithiothreitol (DTT) buffers and all other chemicals were purchased from Sigma Aldrich (St. Louis, Mo.; while 384 well clear bottom plates were purchased from Corning (Corning, N.Y.).
The catalytic reduction of insulin by thiol isomerases in the presence of DTT results in aggregation of insulin chains. The turbidity of insulin aggregation can be monitored spectrophotometrically at an optical density (OD) at 650 nm. This approach has been used by multiple groups to identify thiol isomerase inhibitors in either a kinetic or endpoint fashion. A final concentration of either 10 μg/mL PDI, 30 μg/mL ERp5, 10 μg/mL ERp72 or 10 μg/mL thioredoxin, 125 μM insulin and 2 mM ethylenediaminetetraacetic acid (EDTA) in 30 μL of 100 mM potassium phosphate buffer was added to each experimental well plate, while negative control wells lacked any thiol isomerase. Lead compounds were diluted in a 6 point dose curve and the turbidity of insulin aggregation was measured kinetically each minute for 75 minutes using a Spectramax M3 plate reader (Molecular Devices, Sunnyvale, Calif.) Specificity assay utilized the insulin turbidity assay as well.

T1 sequence (P07237 18-508): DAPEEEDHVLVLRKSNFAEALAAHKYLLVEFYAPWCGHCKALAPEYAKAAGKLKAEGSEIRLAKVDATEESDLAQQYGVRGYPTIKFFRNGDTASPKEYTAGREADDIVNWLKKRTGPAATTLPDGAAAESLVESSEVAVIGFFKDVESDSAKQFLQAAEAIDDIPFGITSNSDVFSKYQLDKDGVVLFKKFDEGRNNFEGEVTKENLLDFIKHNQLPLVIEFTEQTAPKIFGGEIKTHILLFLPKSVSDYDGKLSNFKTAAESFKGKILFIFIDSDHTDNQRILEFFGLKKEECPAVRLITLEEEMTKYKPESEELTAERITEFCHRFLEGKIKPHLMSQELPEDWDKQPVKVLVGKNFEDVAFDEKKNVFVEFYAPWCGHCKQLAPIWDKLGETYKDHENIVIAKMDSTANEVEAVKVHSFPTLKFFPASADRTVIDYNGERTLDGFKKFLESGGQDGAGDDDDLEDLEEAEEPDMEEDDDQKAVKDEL

inhibitory range on PDI (PDI): 30 to 300 µM
Compound: COc1cc(C(=O)NS(=O)(=O)c2ccccc2C)ccc1Cc1cn(C)c2ccc(NC(=O)OC3CCCC3)cc12 [zafirlukast, 4-(5-cyclopentyloxycarbonylamino-1-methylindol-3-ylmethyl)-3-methoxy-N-o-tolylsulfonylbenzamide]
final size of the thrombus (in words) (whole human blood; 10 μM, 10 minutes perfusion): significantly diminished compared to the vehicle
median fluorescence intensity (MFI) of thrombus (whole human blood; 10 μM, after 8 minutes of flow, 20 dynes/cm^2, vehicle 89.15): 74.86 Au
inhibition at 10 µM (whole human blood; Homo sapiens, arterial shear 20 dynes/cm^2, read-out: inhibition of median fluorescence intensity compared to vehicle): 14.2%
